Values after ≈ are worked out from the molar mass of the structure shown.
How the values were obtained:
Candida albicans [1] = test: Antifungal activity against Candida albicans; assay type: functional, organism-based
[2] = system: Mycobacterium tuberculosis; test: Antibacterial activity against Mycobacterium tuberculosis H37Rv; assay type: functional
Candida albicans [3] = test: Antifungal activity against Candida albicans ATCC 76615 incubated for 24 hrs by microbroth dilution method; assay type: functional
Plasmodium falciparum [4] = test: Antiplasmodial activity against Plasmodium falciparum W2 infected in red blood cells (unknown origin) incubated for 72 hrs by LDH assay; assay type: functional, organism-based, Red blood cell; conditions: W2, Erythrocyte
MCF7 = test: Cytotoxicity against human MCF7 cells measured 24 hrs by MTT assay; assay type: functional, cell-based; conditions: MCF7, 24 h
[5] = system: Meyerozyma guilliermondii; test: Antifungal activity against Meyerozyma guilliermondii assessed as zone of inhibition; assay type: functional
Mus musculus = test: Antiinflammatory activity against ear oedema mouse model assessed as inhibition of xylene induced edema; assay type: functional
Aspergillus niger = test: Antifungal activity against Aspergillus niger assessed as zone of inhibition; assay type: functional
Candida albicans [6] = test: Antifungal activity against Candida albicans assessed as zone of inhibition; assay type: functional
[7] = molecular target: T1, Polyunsaturated fatty acid 5-lipoxygenase (Rattus norvegicus, UniProt P12527); test: Inhibition of 5-LOX in Sprague-Dawley rat leukocytes preincubated for 30 mins followed by calcium ionophore A23187 addition and measured after 20 mins by EIA; assay type: cell-based, Leucocyte
T1 sequence (P12527 whole entry): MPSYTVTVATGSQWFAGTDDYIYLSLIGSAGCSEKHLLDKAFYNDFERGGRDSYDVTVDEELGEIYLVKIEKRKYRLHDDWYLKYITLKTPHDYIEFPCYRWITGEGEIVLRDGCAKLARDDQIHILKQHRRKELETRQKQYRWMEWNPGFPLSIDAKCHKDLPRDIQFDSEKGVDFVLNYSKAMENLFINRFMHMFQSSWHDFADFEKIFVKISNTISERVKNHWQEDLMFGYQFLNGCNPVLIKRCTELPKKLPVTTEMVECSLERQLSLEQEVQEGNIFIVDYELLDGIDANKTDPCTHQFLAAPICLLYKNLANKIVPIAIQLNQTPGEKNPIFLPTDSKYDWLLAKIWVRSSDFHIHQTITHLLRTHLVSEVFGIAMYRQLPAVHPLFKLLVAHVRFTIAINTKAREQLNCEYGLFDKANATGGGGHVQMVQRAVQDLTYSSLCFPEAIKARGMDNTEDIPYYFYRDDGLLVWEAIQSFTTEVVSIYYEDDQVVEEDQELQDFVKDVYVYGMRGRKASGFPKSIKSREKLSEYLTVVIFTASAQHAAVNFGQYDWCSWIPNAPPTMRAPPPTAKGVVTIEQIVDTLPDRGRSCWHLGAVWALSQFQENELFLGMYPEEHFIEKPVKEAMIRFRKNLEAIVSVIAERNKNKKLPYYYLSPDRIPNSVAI

[8] = Selectivity index, ratio of IC50 for inhibition of COX2 in rat macrophages to IC50 for inhibition of COX1 in calf endotheliocyte
[9] = molecular target: T2, Prostaglandin G/H synthase 2 (Rattus norvegicus, UniProt P35355); test: Inhibition of COX2 in rat macrophages using arachidonic acid as substrate preincubated with compound for 30 mins followed by substrate addition and measured after 20 mins by EIA; assay type: cell-based, Macrophage
T2 sequence (P35355 whole entry): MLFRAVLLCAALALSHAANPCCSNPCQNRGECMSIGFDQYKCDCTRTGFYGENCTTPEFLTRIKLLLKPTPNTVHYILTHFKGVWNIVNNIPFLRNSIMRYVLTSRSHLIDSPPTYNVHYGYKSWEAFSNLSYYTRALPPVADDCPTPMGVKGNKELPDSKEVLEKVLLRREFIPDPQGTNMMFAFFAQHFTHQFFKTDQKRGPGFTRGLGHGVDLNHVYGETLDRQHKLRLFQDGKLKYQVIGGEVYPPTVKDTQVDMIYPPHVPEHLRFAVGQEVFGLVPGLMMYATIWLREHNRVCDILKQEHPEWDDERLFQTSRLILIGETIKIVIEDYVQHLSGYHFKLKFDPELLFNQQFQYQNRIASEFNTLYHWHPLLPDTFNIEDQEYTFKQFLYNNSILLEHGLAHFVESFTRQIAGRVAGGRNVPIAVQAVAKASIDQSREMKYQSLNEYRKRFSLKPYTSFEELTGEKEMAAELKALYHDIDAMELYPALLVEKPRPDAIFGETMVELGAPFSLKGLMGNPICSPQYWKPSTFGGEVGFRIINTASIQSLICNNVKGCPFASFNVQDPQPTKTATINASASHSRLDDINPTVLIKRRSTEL

Pichia norvegensis = test: Antifungal activity against Candida mycoderma incubated for 24 hrs; assay type: functional
[10] = system: Mycobacterium tuberculosis; test: Antibacterial activity against Mycobacterium tuberculosis; assay type: functional
[11] = system: Mycobacterium tuberculosis; test: Antibacterial activity against Mycobacterium tuberculosis H37Rv (ATTCC 27294) by alamar blue based broth dilution assay; assay type: functional
[12] = system: Mycobacterium tuberculosis; test: Potency index, ratio of pyrazinamide MIC to test compound MIC for antibacterial activity against Mycobacterium tuberculosis H37Rv; assay type: functional
Plasmodium falciparum [13] = test: Antimalarial activity against chloroquine-sensitive Plasmodium falciparum 3D7; assay type: functional

`CCCCCCCCCCC(=O)N[C@H](C(=O)O)[C@H]1O[C@@H](n2ccc(=O)[nH]c2=O)[C@H](O)[C@@H]1O` showed an MIC (Candida albicans [1]) of 40 µg/mL (≈ 87.8 µM).
Molecule `O=C1Nc2cc3c(-c4ccccc4)c(-c4ccccc4)oc(=O)c3cc2C(c2ccccc2Cl)N1` (centres undefined) has an MIC [2] of 62.5 µg/mL.
`CCCCCCCCCCCCCCCC[n+]1cnn(Cc2ccc(Cl)cc2Cl)c1.[Br-]` showed an MIC (Candida albicans [3]) of 30 µg/mL.
Molecule `COc1cc(Nc2nc(OCc3cn(CCCNc4cccc5cc(Cl)ccc45)nn3)nc(N3CCOCC3)n2)cc(OC)c1` has an IC50 (Plasmodium falciparum [4]) of 1730 nM.
In the case of `NNC(=O)c1ccncc1` [ISONIAZID], the MIC [2] is reported as 0.2 µg/mL.
With `COc1cc(/C=C/c2ccc(O)c(/C=N/NC(N)=S)c2)cc(OC)c1` the IC50 (MCF7) was 25000 nM.
With `CC1(C)CC[C@]2(C(=O)O)CC[C@]3(C)C(=CC[C@@H]4[C@@]5(C)CC[C@H](OC(=O)/C=C/c6ccccc6)C(C)(C)[C@@H]5CC[C@]43C)[C@@H]2C1` the “inhibition zone (IZ)” value [5] was 31 mm.
`Cc1cccc(C)c1Nc1nc(OCc2cn(CCNc3cccc4cc(Cl)ccc34)nn2)nc(N(C)C)n1` showed an IC50 (Plasmodium falciparum [4]) of 1690 nM.
For `Cc1ccc(-c2cc(C(F)(F)F)nn2-c2ccc(S(N)(=O)=O)cc2)cc1` [CELECOXIB], the “inhibition (INH)” value (Mus musculus) was 64.9%.
In the case of `CS(=O)(=O)c1ccc(-c2nc(S(C)(=O)=O)nn2-c2ccc(Br)cc2)cc1`, the “inhibition (INH)” value (Mus musculus) is reported as 70.8%.
For `COC1=CC(=O)C[C@@H](C)[C@]12Oc1c(Cl)c(OC)cc(OC)c1C2=O` [GRISEOFULVIN], the “inhibition zone (IZ)” value (Aspergillus niger) was 36 mm and the “inhibition zone (IZ)” value (Candida albicans [6]) was 39 mm.
For `COc1ccc(-c2nc(-c3ccccc3)c(-c3ccccc3)n2C(NN2CCCCC2)c2ccccc2)c(OC)c1OC` (centres undefined), the “inhibition zone (IZ)” value (Aspergillus niger) was 26 mm and the “inhibition zone (IZ)” value (Candida albicans [6]) was 29 mm.
With `NC(=O)c1cnccn1` [PYRAZINAMIDE] the MIC [2] was 50.1 µM.
In the case of `C[C@@H]([C@H](N)C(=O)N[C@H](C(=O)O)[C@H]1O[C@@H](n2ccc(=O)[nH]c2=O)[C@H](O)[C@@H]1O)[C@H](O)c1ccc(O)cn1` [NIKKOMYCIN], the IC50 (Candida albicans [1]) is reported as 0.393 µg/mL (≈ 0.793 µM).
Work on `CS(=O)(=O)c1ccc(-c2nc(SCCN(O)C(N)=O)nn2-c2ccc(Br)cc2)cc1` yielded an IC50 [7] of 850 nM, a Ratio IC50 [8] of 0.015 and an IC50 [9] of 150 nM.
Work on `O=C1c2cccc3c(Br)ccc(c23)C(=O)N1CCCn1c[n+](Cc2ccc(F)cc2F)cn1.[Br-]` yielded an MIC (Pichia norvegensis) of 4 µg/mL.
`O=C1NN=C(/N=C/c2cccc(Cl)c2)/C1=N\Nc1nc2c([N+](=O)[O-])cccc2s1` showed an MIC [10] of 1.66 µg/mL (≈ 3.88 µM).
In the case of `Cn1ccnc1-c1nn2cc(-c3ccc(-c4ccc([N+](=O)[O-])cc4)cc3)nc2s1`, the MIC [11] is reported as 3.14 µg/mL (≈ 7.8 µM).
For `COc1ccc(-c2nc(-c3ccccc3)c(-c3ccccc3)n2C(NN2CCNCC2)c2ccccc2)c(OC)c1OC` (centres undefined), the “inhibition zone (IZ)” value (Aspergillus niger) was 27 mm and the “inhibition zone (IZ)” value (Candida albicans [6]) was 28 mm.
For `CSc1nc(-c2ccc(S(N)(=O)=O)cc2)n(-c2ccc(F)cc2)n1`, the “inhibition (INH)” value (Mus musculus) was 75%.
With `O=C1Nc2ccccc2C12C(c1cccc([N+](=O)[O-])c1)C([N+](=O)[O-])C1CSCN12` (centres undefined) the Ratio [12] was 6.7 and the MIC [2] was 7.6 µM.
In the case of `CSc1nc(-c2ccc(S(N)(=O)=O)cc2)n(-c2ccc(Cl)cc2)n1`, the “inhibition (INH)” value (Mus musculus) is reported as 80%.
In the case of `CC1=C(c2nnc(/N=C3\C(=O)Nc4ccc(Cl)cc43)o2)C(c2ccccc2)NC(=S)N1` (centres undefined), the MIC (Plasmodium falciparum [13]) is reported as 0.035 µg/mL (≈ 0.0776 µM).

From ChEMBL document CHEMBL5257034, “Hybrid molecules: The privileged scaffolds for various pharmaceuticals” (Eur J Med Chem, 2016)
